These results are taken from publication PMC2891058 (Biochemistry, 2010).

Test [1] addresses S. typhimurium QAPRTase (quinolinate phosphoribosyltransferase) (Salmonella enterica, UniProt P30012, K154A). Description: biochemical.
Test [2] has as its target S. typhimurium QAPRTase (quinolinate phosphoribosyltransferase) (Salmonella enterica, UniProt P30012, E215D). In words: biochemical.
Test [3] has as its target S. typhimurium QAPRTase (quinolinate phosphoribosyltransferase) (Salmonella enterica, UniProt P30012, E215A). In words: biochemical.
The target of test [4] is S. typhimurium QAPRTase (quinolinate phosphoribosyltransferase) (Salmonella enterica, UniProt P30012, E215Q). In words: biochemical.
In test [5] the target is S. typhimurium QAPRTase (quinolinate phosphoribosyltransferase) (Salmonella enterica, UniProt P30012, K285A). In words: biochemical.
The target in test [6] is S. typhimurium QAPRTase (quinolinate phosphoribosyltransferase) (Salmonella enterica, UniProt P30012, D236A). Description: biochemical.
For test [7], the target named is S. typhimurium QAPRTase (quinolinate phosphoribosyltransferase) (Salmonella enterica, UniProt P30012). Description: stopped-flow tryptophan fluorescence. It counts as binding.

Consider `O=P(O)(O)OC[C@H]1O[C@H](OP(=O)(O)OP(=O)(O)O)[C@H](O)[C@@H]1O` [PRPP], for which the dissociation constant (Kd) (usually the constant that tells how readily two partners part at equilibrium) in test [1] was over 1000 µM; in test [2] it was 417 ± 76 µM; in test [3], 770 ± 200 µM; in test [4], 113 ± 24 µM; in test [5], about 1000 µM; in test [6], 127 ± 25 µM. For the same compound, the Kd in test [7] came to 53 µM.
